Where a name gives a salt, the structure may show the parent alone.
Assays:
[1] = molecular target: T1, Recombinant human integrin ανβ3 (Homo sapiens, UniProt P05106+P06756); assay: Solid Phase Receptor Assay (SPRA) for ανβ3 function; format: binding; conditions: plate-bound human vitronectin; read-out: αvβ3 SPRA IC50
T1 construct: purchased R&D Systems 3050-AV
Description: C. Solid Phase Receptor Assay (SPRA) for ανβ3 Function
Wells were washed 3 times with 150 μL TBS+ and then 150 μL of blocking buffer (TBS+ with 1% bovine serum albumin, Sigma A7906) was added. The plate was incubated for 1 hr at 37° C. and then washed 3× with TBS+ buffer. […] Compounds were diluted to 20 μM and then 1 μL was added to each well of the plate according to a standard template with each sample repeated in triplicate. After incubation for two hours at room temperature, the plate was washed 3× with 150 μL of TBS+ buffer. To each well, 50 μL of biotinylated anti-αν antibody (R&D Systems, BAF1219) at 0.5 μg/mL in TBS+/0.1% BSA were added and the plate covered and incubated for 1 hr at room temperature. After washing the plate 3× with 150 μL of TBS+ buffer, 50 μL of streptavidin-conjugated horseradish peroxidase (R&D Systems, DY998) diluted in TBS+ blocking buffer were added to the wells and the plate incubated for 20 min at room temperature. The plate was washed 3× with TBS+ buffer followed by 50 μL of TMB substrate (Sigma, T4444) added to each well in the dark and the plate was incubated for 25 min at room temperature. 25 μL of 1.0 M phosphoric acid was added as a stop solution and the plates were read at 450 nm using a Spectramax plate reader.

[2] = molecular target: T2, Recombinant human integrin ανβ5 (Homo sapiens, UniProt P06756+P18084); assay: Solid Phase Receptor Assay (SPRA) for ανβ5 function; format: binding; conditions: plate-bound human vitronectin; read-out: αvβ5 SPRA IC50
T2 construct: purchased R&D Systems 2528-AV
T2 sequence (P06756 31-992 limits assumed): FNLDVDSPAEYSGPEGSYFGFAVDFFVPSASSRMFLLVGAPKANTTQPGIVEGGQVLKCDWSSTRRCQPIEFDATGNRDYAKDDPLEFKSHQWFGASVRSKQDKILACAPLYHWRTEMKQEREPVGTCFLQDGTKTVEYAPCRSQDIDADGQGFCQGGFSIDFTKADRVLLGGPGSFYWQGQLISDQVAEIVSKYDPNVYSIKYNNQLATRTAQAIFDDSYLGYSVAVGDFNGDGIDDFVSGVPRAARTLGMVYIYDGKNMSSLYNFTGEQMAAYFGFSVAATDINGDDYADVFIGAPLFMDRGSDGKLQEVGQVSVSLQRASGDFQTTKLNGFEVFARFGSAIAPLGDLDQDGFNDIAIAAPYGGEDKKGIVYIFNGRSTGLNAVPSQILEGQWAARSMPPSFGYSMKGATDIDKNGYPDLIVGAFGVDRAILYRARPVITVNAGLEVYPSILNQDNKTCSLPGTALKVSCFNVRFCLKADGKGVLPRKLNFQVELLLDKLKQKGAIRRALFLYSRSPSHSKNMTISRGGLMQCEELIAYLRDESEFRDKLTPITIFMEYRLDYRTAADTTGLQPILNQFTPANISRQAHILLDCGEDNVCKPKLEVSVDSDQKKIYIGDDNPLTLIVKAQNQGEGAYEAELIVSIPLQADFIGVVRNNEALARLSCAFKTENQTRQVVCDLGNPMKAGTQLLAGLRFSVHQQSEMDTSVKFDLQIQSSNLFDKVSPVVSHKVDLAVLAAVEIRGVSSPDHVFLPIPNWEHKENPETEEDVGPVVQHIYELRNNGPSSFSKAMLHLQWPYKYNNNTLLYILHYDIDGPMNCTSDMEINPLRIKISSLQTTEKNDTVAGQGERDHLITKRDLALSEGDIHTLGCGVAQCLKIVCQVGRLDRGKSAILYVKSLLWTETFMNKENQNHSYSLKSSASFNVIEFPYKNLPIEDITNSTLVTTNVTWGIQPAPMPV
T2 sequence (P18084 24-719 limits assumed): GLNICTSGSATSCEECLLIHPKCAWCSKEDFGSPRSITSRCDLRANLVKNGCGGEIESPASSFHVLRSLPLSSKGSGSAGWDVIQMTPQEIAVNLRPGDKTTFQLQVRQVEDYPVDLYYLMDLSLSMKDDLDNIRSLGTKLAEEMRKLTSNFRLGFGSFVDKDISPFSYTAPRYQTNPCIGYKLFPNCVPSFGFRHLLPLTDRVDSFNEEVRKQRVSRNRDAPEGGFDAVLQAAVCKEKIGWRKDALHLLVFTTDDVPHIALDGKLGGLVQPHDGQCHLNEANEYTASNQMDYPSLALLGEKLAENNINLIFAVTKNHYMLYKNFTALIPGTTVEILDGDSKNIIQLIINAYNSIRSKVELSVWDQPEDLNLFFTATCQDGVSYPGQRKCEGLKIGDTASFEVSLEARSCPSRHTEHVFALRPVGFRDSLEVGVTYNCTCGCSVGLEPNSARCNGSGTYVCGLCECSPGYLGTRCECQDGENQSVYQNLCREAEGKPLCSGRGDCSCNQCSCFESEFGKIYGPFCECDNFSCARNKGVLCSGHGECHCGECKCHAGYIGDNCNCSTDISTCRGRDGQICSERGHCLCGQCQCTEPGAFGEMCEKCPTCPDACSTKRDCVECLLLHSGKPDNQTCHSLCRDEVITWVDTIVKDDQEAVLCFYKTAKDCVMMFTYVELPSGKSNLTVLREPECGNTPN
Description: D. Solid Phase Receptor Assay (SPRA) for ανβ5 Function
Wells were washed 3 times with 150 μL TBS+ and then 150 μL of blocking buffer (TBS+ with 1% bovine serum albumin, Sigma A7906) was added. The plate was incubated for 1 hr at 37° C. and then washed 3× with TBS+ buffer. […] Compounds were diluted to 20 μM and then 1 μL was added to each well of the plate according to a standard template with each sample repeated in triplicate. After incubation for two hours at room temperature, the plate was washed 3× with 150 μL of TBS+ buffer. To each well, 50 μl of biotinylated anti-αν antibody (R&D Systems, BAF1219) at 0.5 μg/mL in TBS+/0.1% BSA at 0.5 μg/mL were added and the plate covered and incubated for 1 hr at room temperature. After washing the plate 3 with 150 μL of TBS+ buffer, 50 μL of streptavidin-conjugated horseradish peroxidase (R&D Systems, DY998) diluted in TBS+ blocking buffer were added to the wells and the plate incubated for 20 min at room temperature. The plate was washed 3× with TBS+ buffer followed by 50 μL of TMB substrate (Sigma T4444) added to each well in the dark and the plate incubated for 5 min at room temperature. 25 μL of 1.0 M phosphoric acid was added as a stop solution and the plates were read at 450 nm using a Spectramax plate reader.

T1 sequence (P06756 31-992 limits assumed): as the sequence (P06756 31-992 limits assumed) above
T1 sequence (P05106 27-718 limits assumed): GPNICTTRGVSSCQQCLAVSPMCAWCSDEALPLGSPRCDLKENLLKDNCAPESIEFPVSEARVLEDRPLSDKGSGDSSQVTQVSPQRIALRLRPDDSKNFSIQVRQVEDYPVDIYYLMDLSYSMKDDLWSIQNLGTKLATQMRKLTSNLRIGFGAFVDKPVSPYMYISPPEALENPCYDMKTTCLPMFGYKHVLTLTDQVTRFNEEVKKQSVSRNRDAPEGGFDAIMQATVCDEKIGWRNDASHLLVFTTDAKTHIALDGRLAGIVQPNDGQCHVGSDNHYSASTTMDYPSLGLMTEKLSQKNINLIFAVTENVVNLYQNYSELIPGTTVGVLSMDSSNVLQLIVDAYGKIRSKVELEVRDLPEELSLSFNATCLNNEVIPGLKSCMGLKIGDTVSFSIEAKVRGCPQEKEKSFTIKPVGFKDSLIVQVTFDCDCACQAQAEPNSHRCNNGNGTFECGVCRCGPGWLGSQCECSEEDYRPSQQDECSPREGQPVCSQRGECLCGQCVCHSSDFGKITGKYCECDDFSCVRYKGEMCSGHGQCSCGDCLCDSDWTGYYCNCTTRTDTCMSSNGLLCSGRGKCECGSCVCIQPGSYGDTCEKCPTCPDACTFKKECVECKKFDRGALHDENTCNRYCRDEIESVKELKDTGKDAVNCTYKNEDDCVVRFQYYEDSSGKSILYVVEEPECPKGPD

| SMILES | IC50 [1] [nM] | IC50 [2] [nM] |
| --- | --- | --- |
| Cn1nc(CC(CC(=O)O)c2ccc3c(c2)OCCO3)cc1OCCc1ccc2c(n1)NCCC2 (stereo not shown) [Example 1, 3-(2,3-dihydrobenzo[b][1,4]dioxin-6-yl)-4-(1-methyl-5-(2-(5,6,7,8-tetrahydro-1,8-naphthyridin-2-yl)ethoxy)-1H-pyrazol-3-yl)butanoic Acid] | 5 | 0.9 |
| Cn1nc(CC(CC(=O)O)c2cc(F)cc(Cl)c2)cc1OCCc1ccc2c(n1)NCCC2 (stereo not shown) [Example 2, 3-(3-chloro-5-fluorophenyl)-4-(1-methyl-5-(2-(5,6,7,8-tetrahydro-1,8-naphthyridin-2-yl)ethoxy)-1H-pyrazol-3-yl)butanoic Acid] | 4 | 0.3 |
| COc1ccc(C(CC(=O)O)Cc2cc(OCCc3ccc4c(n3)NCCC4)n(C)n2)cc1F (stereo not shown) [Example 3, 3-(3-fluoro-4-methoxyphenyl)-4-(1-methyl-5-(2-(5,6,7,8-tetrahydro-1,8-naphthyridin-2-yl)-ethoxy)-1H-pyrazol-3-yl)butanoic Acid] | 3 | 0.4 |
| Cn1nc(CC(CC(=O)O)c2ccc(Br)c(F)c2)cc1OCCc1ccc2c(n1)NCCC2 (stereo not shown) [Example 4, 3-(4-bromo-3-fluorophenyl)-4-(1-methyl-5-(2-(5,6,7,8-tetrahydro-1,8-naphthyridin-2-yl)ethoxy)-1H-pyrazol-3-yl)butanoic Acid] | 3 | 0.5 |
| Cn1nc(CC(CC(=O)O)c2ccc(F)c(Br)c2)cc1OCCc1ccc2c(n1)NCCC2 (stereo not shown) [Example 5, 3-(3-bromo-4-fluorophenyl)-4-(1-methyl-5-(2-(5,6,7,8-tetrahydro-1,8-naphthyridin-2-yl)ethoxy)-1H-pyrazol-3-yl)butanoic Acid] | 6 | 0.4 |
| Cn1nc(CC(CC(=O)O)c2cccc(Br)c2)cc1OCCc1ccc2c(n1)NCCC2 (stereo not shown) [Example 6, 3-(3-bromophenyl)-4-(1-methyl-5-(2-(5,6,7,8-tetrahydro-1,8-naphthyridin-2-yl)ethoxy)-1H-pyrazol-3-yl)butanoic Acid] | 5 | 0.4 |
| Cn1nc(CC(CC(=O)O)c2ccc(F)c(C#N)c2)cc1OCCc1ccc2c(n1)NCCC2 (stereo not shown) [Example 7, 3-(3-cyano-4-fluorophenyl)-4-(1-methyl-5-(2-(5,6,7,8-tetrahydro-1,8-naphthyridin-2-yl)ethoxy)-1H-pyrazol-3-yl)butanoic Acid] | 7 | 0.6 |
| Cn1nc(CC(CC(=O)O)c2ccc(C#N)c(F)c2)cc1OCCc1ccc2c(n1)NCCC2 (stereo not shown) [Example 8] | 6 | 1 |
| Cn1nc(CC(CC(=O)O)c2cccc(C#N)c2)cc1OCCc1ccc2c(n1)NCCC2 (stereo not shown) [Example 9, 3-(3-cyanophenyl)-4-(1-methyl-5-(2-(5,6,7,8-tetrahydro-1,8-naphthyridin-2-yl)ethoxy)-1H-pyrazol-3-yl)butanoic Acid] | 6 | 0.2 |
| Cn1nc(CC(CC(=O)O)c2cc(Br)cc(C(F)(F)F)c2)cc1OCCc1ccc2c(n1)NCCC2 (stereo not shown) [Example 10, 3-(3-bromo-5-(trifluoromethyl)phenyl)-4-(1-methyl-5-(2-(5,6,7,8-tetrahydro-1,8-naphthyridin-2-yl)ethoxy)-1H-pyrazol-3-yl)butanoic Acid] | 3.6 | 1 |
| Cn1nc(CC(CC(=O)O)c2cc(Br)cc(OC(F)(F)F)c2)cc1OCCc1ccc2c(n1)NCCC2 (stereo not shown) [Example 11, 3-(3-bromo-5-(trifluoromethoxy)phenyl)-4-(1-methyl-5-(2-(5,6,7,8-tetrahydro-1,8-naphthyridin-2-yl)ethoxy)-1H-pyrazol-3-yl)butanoic Acid] | 6 | 0.8 |
| COc1ccc(C(F)(F)F)cc1C(CC(=O)O)Cc1cc(OCCc2ccc3c(n2)NCCC3)n(C)n1 (stereo not shown) [Example 13, 3-(2-methoxy-5-(trifluoromethyl)phenyl)-4-(1-methyl-5-(2-(5,6,7,8-tetrahydro-1,8-naphthyridin-2-yl)ethoxy)-1H-pyrazol-3-yl)butanoic Acid Trifluoroacetate] | 11 | 16 |
| COc1ccc(Br)cc1C(CC(=O)O)Cc1cc(OCCc2ccc3c(n2)NCCC3)n(C)n1 (stereo not shown) [Example 14, 3-(5-bromo-2-methoxyphenyl)-4-(1-methyl-5-(2-(5,6,7,8-tetrahydro-1,8-naphthyridin-2-yl)ethoxy)-1H-pyrazol-3-yl)butanoic acid trifluoroacetate] | 6.7 | 7.9 |
| COc1ccc([C@H](CC(=O)O)Cc2cc(OCCc3ccc4c(n3)NCCC4)n(C)n2)cc1F [Example 15, (3S)-3-(3-fluoro-4-methoxyphenyl)-4-(1-methyl-5-(2-(5,6,7,8-tetrahydro-1,8-naphthyridin-2-yl)ethoxy)-1H-pyrazol-3-yl)butanoic Acid] | 2.6 | 0.3 |
| Cn1nc(CC(CC(=O)O)c2cc(Br)cc(C(C)(C)C)c2)cc1OCCc1ccc2c(n1)NCCC2 (stereo not shown) [Example 16, 3-(3-bromo-5-tert-butyl-phenyl)-4-(1-methyl-5-(2-(5,6,7,8-tetrahydro-1,8-naphthyridin-2-yl)ethoxy)-1H-pyrazol-3-yl)butanoic Acid] | 7.7 | 3.1 |
| Cn1nc(CC(CC(=O)O)c2cc(C#N)cc(C(C)(C)C)c2)cc1OCCc1ccc2c(n1)NCCC2 (stereo not shown) [Example 17] | 7.4 | 0.4 |
| Cn1nc(CC(CC(=O)O)c2cc(C(C)(C)C)cc(C(C)(C)C)c2)cc1OCCc1ccc2c(n1)NCCC2 (stereo not shown) [Example 18, 3-(3,5-di-tert-butylphenyl)-4-[1-methyl-5-[2-(5,6,7,8-tetrahydro-1,8-naphthyridin-2-yl)ethoxyl]pyrazol-3-yl]butanoic Acid] | 84 | 180 |
| Cn1nc(CC(CC(=O)O)c2cc(Br)cc(C3(C(F)F)CC3)c2)cc1OCCc1ccc2c(n1)NCCC2 (stereo not shown) [Example 19, 3-(3-bromo-5-(1-(difluoromethyl)cyclopropyl)phenyl)-4-(1-methyl-5-(2-(5,6,7,8-tetrahydro-1,8-naphthyridin-2-yl)ethoxy)-1H-pyrazol-3-yl)butanoic Acid] | 6.4 | 1.2 |
| Cn1nc(CC(CC(=O)O)c2cc(C#N)cc(C3(C(F)F)CC3)c2)cc1OCCc1ccc2c(n1)NCCC2 (stereo not shown) [Example 20, 3-(3-cyano-5-(1-(difluoromethyl)cyclopropyl)phenyl)-4-(1-methyl-5-(2-(5,6,7,8-tetrahydro-1,8-naphthyridin-2-yl)ethoxy)-1H-pyrazol-3-yl)butanoic Acid] | 3.6 | 0.2 |
| Cn1nc(CC(CC(=O)O)c2cc(F)cc(C3(C(F)F)CC3)c2)cc1OCCc1ccc2c(n1)NCCC2 (stereo not shown) [Example 21, 3-(3-(1-(difluoromethyl)cyclopropyl)-5-fluorophenyl)-4-(1-methyl-5-(2-(5,6,7,8-tetrahydro-1,8-naphthyridin-2-yl)ethoxy)-1H-pyrazol-3-yl)butanoic Acid] | 2.5 | 0.2 |
| Cn1nc(CC(CC(=O)O)c2cc(Cl)cc(C3(C(F)F)CC3)c2)cc1OCCc1ccc2c(n1)NCCC2 (stereo not shown) [Example 22, 3-(3-chloro-5-(1-(difluoromethyl)cyclopropyl)phenyl)-4-(1-methyl-5-(2-(5,6,7,8-tetrahydro-1,8-naphthyridin-2-yl)ethoxy)-1H-pyrazol-3-yl)butanoic Acid] | 3.3 | 0.6 |
| Cn1nc(CC(CC(=O)O)c2cc(C(F)(F)F)cc(C3(C(F)F)CC3)c2)cc1OCCc1ccc2c(n1)NCCC2 (stereo not shown) [Example 23, 3-(3-(1-(difluoromethyl)cyclopropyl)-5-(trifluoromethyl)phenyl)-4-(1-methyl-5-(2-(5,6,7,8-tetrahydro-1,8-naphthyridin-2-yl)ethoxy)-1H-pyrazol-3-yl)butanoic Acid] | 7.5 | 6.5 |
| Cn1nc(CC(CC(=O)O)c2cc(F)cc(C(C)(C)C(F)(F)F)c2)cc1OCCc1ccc2c(n1)NCCC2 (stereo not shown) [Example 24, 3-(3-fluoro-5-(1,1,1-trifluoro-2-methylpropan-2-yl)phenyl)-4-(1-methyl-5-(2-(5,6,7,8-tetrahydro-1,8-naphthyridin-2-yl)ethoxy)-1H-pyrazol-3-yl)butanoic Acid] | 4.5 | 0.2 |
